# What was measured:
# Bacillus cereus [1] = assay: Antibacterial activity against Bacillus cereus MTCC 430 by agar streak dilution method; type: functional
# Pseudomonas aeruginosa [2] = assay: Antibacterial activity against Pseudomonas aeruginosa MTCC 741 at 100 ug/disc by paper disc diffusion technique; type: functional; settings: read-out: IZ
# Staphylococcus aureus [3] = assay: Antibacterial activity against Staphylococcus aureus MTCC 96 at 100 ug/disc by paper disc diffusion technique; type: functional; settings: read-out: IZ
# Proteus vulgaris [4] = assay: Antibacterial activity against Proteus vulgaris MTCC 1771 at 100 ug/disc by paper disc diffusion technique; type: functional; settings: read-out: IZ
# [5] = system: Mycobacterium tuberculosis; assay: Antituberculosis activity against Mycobacterium tuberculosis H37Rv by Lowenstein-Jensen method; type: functional
# Aspergillus fumigatus [6] = assay: Antifungal activity against Aspergillus fumigatus MTCC 343 by agar streak dilution method; type: functional
# Aspergillus niger [7] = assay: Antifungal activity against Aspergillus niger MTCC 282 at 100 ug/disc by paper disc diffusion technique; type: functional; settings: read-out: IZ
# Aspergillus clavatus [8] = assay: Antifungal activity against Aspergillus clavatus MTCC 1323 by agar streak dilution method; type: functional
# [9] = Lipophilicity, log P of the compound; type: physicochemical; settings: octanol/water
# Klebsiella pneumoniae [10] = assay: Antibacterial activity against Klebsiella pneumoniae MTCC 109 at 100 ug/disc by paper disc diffusion technique; type: functional; settings: read-out: IZ
# Proteus vulgaris [11] = assay: Antibacterial activity against Proteus vulgaris MTCC 1771 by agar streak dilution method; type: functional
# Aspergillus clavatus [12] = assay: Antifungal activity against Aspergillus clavatus MTCC 1323 at 100 ug/disc by paper disc diffusion technique; type: functional; settings: read-out: IZ
# Salmonella typhi [13] = assay: Antibacterial activity against Salmonella typhi MTCC 733 by agar streak dilution method; type: functional, Salmonella enterica subsp. enterica serovar Typhi; settings: Salmonella enterica
# Aspergillus fumigatus [14] = assay: Antifungal activity against Aspergillus fumigatus MTCC 343 at 100 ug/disc by paper disc diffusion technique; type: functional; settings: read-out: IZ
# [15] = system: Mycobacterium tuberculosis; assay: Antituberculosis activity against Mycobacterium tuberculosis H37Rv by BACTEC MGIT method; type: functional
# Shigella flexneri [16] = assay: Antibacterial activity against Shigella flexneri MTCC 1457 at 100 ug/disc by paper disc diffusion technique; type: functional; settings: read-out: IZ
# Salmonella typhi [17] = assay: Antibacterial activity against Salmonella typhi MTCC 733 at 100 ug/disc by paper disc diffusion technique; type: functional, Salmonella enterica subsp. enterica serovar Typhi; settings: Salmonella enterica, read-out: IZ
# Shigella flexneri [18] = assay: Antibacterial activity against Shigella flexneri MTCC 1457 by agar streak dilution method; type: functional
# Pseudomonas aeruginosa [19] = assay: Antibacterial activity against Pseudomonas aeruginosa MTCC 741 by agar streak dilution method; type: functional
# Staphylococcus aureus [20] = assay: Antibacterial activity against Staphylococcus aureus MTCC 96 by agar streak dilution method; type: functional
# Candida albicans [21] = assay: Antifungal activity against Candida albicans MTCC 183 by agar streak dilution method; type: functional
# Bacillus cereus [22] = assay: Antibacterial activity against Bacillus cereus MTCC 430 at 100 ug/disc by paper disc diffusion technique; type: functional; settings: read-out: IZ
# Candida albicans [23] = assay: Antifungal activity against Candida albicans MTCC 183 at 100 ug/disc by paper disc diffusion technique; type: functional; settings: read-out: IZ
# Klebsiella pneumoniae [24] = assay: Antibacterial activity against Klebsiella pneumoniae MTCC 109 by agar streak dilution method; type: functional
# Aspergillus niger [25] = assay: Antifungal activity against Aspergillus niger MTCC 282 by agar streak dilution method; type: functional
# [26] = system: Mycobacterium tuberculosis; assay: Antituberculosis activity against Mycobacterium tuberculosis H37Rv at 6.25 ug/ml by Lowenstein-Jensen method; type: functional
# Escherichia coli [27] = assay: Antibacterial activity against Escherichia coli MTCC 739 at 100 ug/disc by paper disc diffusion technique; type: functional; settings: read-out: IZ
# Escherichia coli [28] = assay: Antibacterial activity against Escherichia coli MTCC 739 by agar streak dilution method; type: functional
# [29] = system: Mycobacterium tuberculosis; assay: Antituberculosis activity against Mycobacterium tuberculosis H37Rv at 6.25 ug/ml by BACTEC MGIT method; type: functional
Compound,MIC (Bacillus cereus [1]) [µg/mL],zone of inhibition at 100 µg/disc (Pseudomonas aeruginosa [2]) [mm],zone of inhibition at 100 µg/disc (Staphylococcus aureus [3]) [mm],zone of inhibition at 100 µg/disc (Proteus vulgaris [4]) [mm],MIC [5] [µg/mL],MIC (Aspergillus fumigatus [6]) [µg/mL],zone of inhibition at 100 µg/disc (Aspergillus niger [7]) [mm],MIC (Aspergillus clavatus [8]) [µg/mL],logP [9],zone of inhibition at 100 µg/disc (Klebsiella pneumoniae [10]) [mm],MIC (Proteus vulgaris [11]) [µg/mL],zone of inhibition at 100 µg/disc (Aspergillus clavatus [12]) [mm],MIC (Salmonella typhi [13]) [µg/mL],zone of inhibition at 100 µg/disc (Aspergillus fumigatus [14]) [mm],MIC [15] [µg/mL],zone of inhibition at 100 µg/disc (Shigella flexneri [16]) [mm],zone of inhibition at 100 µg/disc (Salmonella typhi [17]) [mm],MIC (Shigella flexneri [18]) [µg/mL],MIC (Pseudomonas aeruginosa [19]) [µg/mL],MIC (Staphylococcus aureus [20]) [µg/mL],further results
CC(=O)Nc1ccc2nc(NC(=O)CSc3nnc(Cn4cnc5ccccc54)o3)sc2c1,100,< 10,19,24,50,100,24,50,2.6,20,12.5,23,100,< 10,> 6.25,16,16,100,100,50,MIC (Candida albicans [21]): 50 µg/mL; zone of inhibition at 100 µg/disc (Bacillus cereus [22]): 16 mm; zone of inhibition at 100 µg/disc (Candida albicans [23]): 23 mm; MIC (Klebsiella pneumoniae [24]): 50 µg/mL; MIC (Aspergillus niger [25]): 12.5 µg/mL; inhibition at 6.25 µg/mL [26]: 98%; zone of inhibition at 100 µg/disc (Escherichia coli [27]): 20 mm; MIC (Escherichia coli [28]): 50 µg/mL
NC(=O)c1cnccn1 [PYRAZINAMIDE],,,,,,,,,,,,,,,6.25,,,,,,inhibition at 6.25 µg/mL [29]: 99%
O=C(CSc1nnc(Cn2cnc3ccccc32)o1)Nc1nc2ccc(F)cc2s1,6.25,20,25,22,12.5,25,21,50,3.85,19,25,21,25,23,> 6.25,24,24,6.25,50,3.12,MIC (Candida albicans [21]): 50 µg/mL; zone of inhibition at 100 µg/disc (Bacillus cereus [22]): 29 mm; zone of inhibition at 100 µg/disc (Candida albicans [23]): 23 mm; MIC (Klebsiella pneumoniae [24]): 50 µg/mL; MIC (Aspergillus niger [25]): 25 µg/mL; inhibition at 6.25 µg/mL [26]: 99%; zone of inhibition at 100 µg/disc (Escherichia coli [27]): 17 mm; MIC (Escherichia coli [28]): 50 µg/mL
O=C(CSc1nnc(Cn2cnc3ccccc32)o1)Nc1nc2ccc(Br)cc2s1,25,23,26,20,25,50,19,50,4.52,14,50,20,25,21,> 6.25,23,24,12.5,25,3.12,MIC (Candida albicans [21]): 100 µg/mL; zone of inhibition at 100 µg/disc (Bacillus cereus [22]): 24 mm; zone of inhibition at 100 µg/disc (Candida albicans [23]): 17 mm; MIC (Klebsiella pneumoniae [24]): 100 µg/mL; MIC (Aspergillus niger [25]): 50 µg/mL; inhibition at 6.25 µg/mL [26]: 99%; zone of inhibition at 100 µg/disc (Escherichia coli [27]): 19 mm; MIC (Escherichia coli [28]): 50 µg/mL
CCOc1ccc2nc(NC(=O)CSc3nnc(Cn4cnc5ccccc54)o3)sc2c1,50,18,22,26,50,100,20,100,3.9,21,12.5,17,50,13,> 6.25,19,19,50,50,12.5,MIC (Candida albicans [21]): 25 µg/mL; zone of inhibition at 100 µg/disc (Bacillus cereus [22]): 21 mm; zone of inhibition at 100 µg/disc (Candida albicans [23]): 26 mm; MIC (Klebsiella pneumoniae [24]): 50 µg/mL; MIC (Aspergillus niger [25]): 25 µg/mL; inhibition at 6.25 µg/mL [26]: 99%; zone of inhibition at 100 µg/disc (Escherichia coli [27]): 24 mm; MIC (Escherichia coli [28]): 25 µg/mL
Cc1ccc2nc(NC(=O)CSc3nnc(Cn4cnc5ccccc54)o3)sc2c1,50,15,15,20,200,100,12,100,4.18,18,50,12,100,< 10,> 6.25,14,11,100,100,50,MIC (Candida albicans [21]): 100 µg/mL; zone of inhibition at 100 µg/disc (Bacillus cereus [22]): 19 mm; zone of inhibition at 100 µg/disc (Candida albicans [23]): 15 mm; MIC (Klebsiella pneumoniae [24]): 100 µg/mL; MIC (Aspergillus niger [25]): 100 µg/mL; inhibition at 6.25 µg/mL [26]: 97%; zone of inhibition at 100 µg/disc (Escherichia coli [27]): 12 mm; MIC (Escherichia coli [28]): 100 µg/mL

# From ChEMBL document CHEMBL2034905, “Synthesis of benzimidazolyl-1,3,4-oxadiazol-2ylthio-N-phenyl (benzothiazolyl) acetamides as antibacterial, antifungal and antituberculosis agents” (Eur J Med Chem, 2012)
